Data published in ChEMBL document CHEMBL1201862, “PubChem BioAssay data set” (2004).
The source made the active and inactive calls.

Columns and labels:
Vero [1] = assay: host cell cytotoxicity of antiviral hits, dose response, cytotoxicity control for West Nile virus antiviral project, secondary assay (AID 1650); type: functional, Chlorocebus sabaeus
[2] = growth suppression of PTEN-null colon cells, dose response, cell-based, HCT116 PTEN knockout (AID 1047); type: functional;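 also: HCT116 colon tumor cells with PTEN knocked out; cells exposed to compound for 60 hours before readout; potency for loss of cell viability measured by luminescence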
[3] = growth suppression of beta-catenin-knockout colon cells, dose response, cell-based, HCT116, human colon tumor (AID 1045); type: functional;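 also: HCT116 colon tumor cells with beta catenin knocked out; cells exposed to compound for 60 hours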
[4] = target: Induced myeloid leukemia cell differentiation protein Mcl-1 (Homo sapiens, UniProt Q07820); type: functional
[5] = THP-1 cell cytotoxicity, dose response, cytotoxicity control for non-replicating M. tuberculosis project (AID 489025); type: functional
[6] = HepG2 cell cytotoxicity, dose response, cytotoxicity control for non-replicating M. tuberculosis project (AID 489018); type: functional; conditions: Mycobacterium tuberculosis
[7] = Vero E6 cell cytotoxicity, dose response, cytotoxicity control for non-replicating M. tuberculosis project, secondary assay (AID 492998); type: functional, VeroE6; conditions: Vero C1008
cells = type: functional
Beta-galactosidase = Beta-galactosidase (Escherichia coli, UniProt Q8VNN2); assay: PubChem AID 485352; type: functional
[8] = target: T1, Type-1 angiotensin II receptor (Homo sapiens, UniProt P30556); assay: AT1 receptor antagonists, dose response, selectivity assay for APJ receptor antagonist project, cell-based, uHTS hits (AID 463214); type: functional;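 also: antagonist potency against angiotensin II stimulated AT1 response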
T1 sequence (P30556 whole entry): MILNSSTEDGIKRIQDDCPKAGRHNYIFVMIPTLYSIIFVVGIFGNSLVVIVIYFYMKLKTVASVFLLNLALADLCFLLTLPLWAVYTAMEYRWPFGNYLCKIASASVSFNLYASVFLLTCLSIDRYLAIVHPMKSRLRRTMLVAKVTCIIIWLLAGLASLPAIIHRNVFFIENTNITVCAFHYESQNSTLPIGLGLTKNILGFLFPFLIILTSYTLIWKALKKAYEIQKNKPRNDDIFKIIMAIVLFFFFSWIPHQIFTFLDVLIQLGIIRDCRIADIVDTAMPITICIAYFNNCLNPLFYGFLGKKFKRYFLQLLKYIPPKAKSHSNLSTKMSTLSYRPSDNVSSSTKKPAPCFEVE

[9] = target: DNA dC->dU-editing enzyme APOBEC-3A (Homo sapiens, UniProt P31941); assay: Dose Response confirmation of small molecule APOBEC3A DNA Deaminase Inhibitors via a fluorescence-based single-stranded DNA deaminase assay. [Related pubchem assays (depositor defined):AID493011, AID493024]; type: functional
[10] = target: DNA dC->dU-editing enzyme APOBEC-3G (Homo sapiens, UniProt Q9HC16); type: functional;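 also: Dose-response counterscreen measuring inhibition of APOBEC3G DNA deaminase activity, run while confirming APOBEC3A inhibitors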
Cytochrome P450 1A2 = target: T2, Cytochrome P450 1A2 (Homo sapiens, UniProt P05177);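 also: PubChem cytochrome P450 panel assay, CYP1A2 panel member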
T2 sequence (P05177 whole entry): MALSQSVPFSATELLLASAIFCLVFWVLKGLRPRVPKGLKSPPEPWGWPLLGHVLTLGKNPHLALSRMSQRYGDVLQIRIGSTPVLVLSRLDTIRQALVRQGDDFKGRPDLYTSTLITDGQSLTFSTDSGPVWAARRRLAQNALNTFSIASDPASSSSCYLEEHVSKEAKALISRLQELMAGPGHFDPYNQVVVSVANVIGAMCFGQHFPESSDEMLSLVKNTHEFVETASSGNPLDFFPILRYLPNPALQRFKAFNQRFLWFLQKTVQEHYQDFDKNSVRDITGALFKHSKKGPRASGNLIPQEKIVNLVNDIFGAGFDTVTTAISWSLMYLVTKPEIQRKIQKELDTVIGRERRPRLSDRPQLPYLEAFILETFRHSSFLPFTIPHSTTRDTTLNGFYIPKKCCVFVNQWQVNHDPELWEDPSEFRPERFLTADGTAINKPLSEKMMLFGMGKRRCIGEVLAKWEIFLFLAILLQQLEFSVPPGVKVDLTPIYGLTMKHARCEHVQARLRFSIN

Cytochrome P450 3A4 = Cytochrome P450 3A4 (Homo sapiens, UniProt P08684);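 also: CYP3A4 tested as one member of a cytochrome P450 panel screen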
[11] = inhibitors of firefly luciferase expression or activity, dose response, H4 neuroglioma cells, luminescence (AID 1990); type: functional, cell-based
[12] = Luminescence Cell-Based Dose Response HTS to Identify Inhibitors of 5'UTR Stem-Loop Driven Prion Protein mRNA Translation in H4 Neuroglioblastoma Cells. [Related pubchem assays: 1827 (Project Summary), 1813 (Primary HTS)]; type: functional
[13] = inhibitors of SNCA 5'UTR-driven reporter translation, confirmation, H4 neuroglioma cells, luminescence (AID 1988); type: functional, cell-based
Vero [14] = assay: cells; type: functional, cell-based; conditions: Chlorocebus sabaeus
BJ = assay: cytotoxicity toward Ras-transformed BJeLR fibroblasts, dose response, cell-based, alamar blue fluorescence, cherrypicked samples (AID 2631); type: functional; conditions: Homo sapiens;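 also: confirmatory dose-response assay in RAS-dependent BJ fibroblasts engineered with TERT, LT and ST, with cytotoxicity read by fluorescence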
Vero [15] = assay: cells; type: functional; conditions: Chlorocebus sabaeus
Paired box protein Pax-8 = Paired box protein Pax-8 (Homo sapiens, UniProt Q06710); assay: inhibitors of PAX8-driven TPO luciferase reporter, dose response, RMG-I cells, cherry-pick (AID 687027); type: functional, cell-based;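 also: luciferase reporter driven by Pax8 target thyroperoxidase promoter measured by SteadyGlo luminescence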
[16] = target: Glyceraldehyde-3-phosphate dehydrogenase (Homo sapiens, UniProt P04406)
[17] = target: T3, Alkaline phosphatase, tissue-nonspecific isozyme (Homo sapiens, UniProt P05186); assay: human TNAP enzyme inhibitors, SAR follow-up, biochemical, luminescent, dose response (AID 1056)
T3 sequence (P05186 whole entry): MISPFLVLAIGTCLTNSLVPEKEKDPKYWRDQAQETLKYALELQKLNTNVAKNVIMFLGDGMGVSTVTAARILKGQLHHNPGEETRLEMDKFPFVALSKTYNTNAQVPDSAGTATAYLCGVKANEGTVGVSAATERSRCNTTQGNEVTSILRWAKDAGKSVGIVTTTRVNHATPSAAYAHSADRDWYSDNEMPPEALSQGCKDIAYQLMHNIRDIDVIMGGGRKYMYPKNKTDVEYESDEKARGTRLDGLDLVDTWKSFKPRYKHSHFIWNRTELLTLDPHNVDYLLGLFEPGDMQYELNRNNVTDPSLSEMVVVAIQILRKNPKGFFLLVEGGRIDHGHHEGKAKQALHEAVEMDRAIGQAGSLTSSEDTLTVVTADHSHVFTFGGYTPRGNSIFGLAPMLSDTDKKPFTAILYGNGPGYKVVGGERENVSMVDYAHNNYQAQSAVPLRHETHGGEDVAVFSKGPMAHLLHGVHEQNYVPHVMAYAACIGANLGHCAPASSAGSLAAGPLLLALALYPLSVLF

Sequence of Cytochrome P450 3A4 (P08684 whole entry): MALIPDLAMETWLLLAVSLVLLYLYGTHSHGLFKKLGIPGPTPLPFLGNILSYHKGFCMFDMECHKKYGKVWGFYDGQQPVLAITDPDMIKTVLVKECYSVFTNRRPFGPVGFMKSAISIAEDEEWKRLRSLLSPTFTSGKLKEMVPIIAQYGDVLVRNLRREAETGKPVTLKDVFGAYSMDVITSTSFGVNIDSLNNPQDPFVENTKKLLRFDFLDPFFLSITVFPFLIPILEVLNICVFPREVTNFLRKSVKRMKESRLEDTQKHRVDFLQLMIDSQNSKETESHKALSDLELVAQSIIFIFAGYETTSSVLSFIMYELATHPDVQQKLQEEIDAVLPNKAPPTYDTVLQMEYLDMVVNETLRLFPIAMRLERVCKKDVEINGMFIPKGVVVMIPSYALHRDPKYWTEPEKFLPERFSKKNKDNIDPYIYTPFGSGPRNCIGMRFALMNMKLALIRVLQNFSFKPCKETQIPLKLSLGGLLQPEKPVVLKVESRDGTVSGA
Sequence of Induced myeloid leukemia cell differentiation protein Mcl-1 (Q07820 whole entry): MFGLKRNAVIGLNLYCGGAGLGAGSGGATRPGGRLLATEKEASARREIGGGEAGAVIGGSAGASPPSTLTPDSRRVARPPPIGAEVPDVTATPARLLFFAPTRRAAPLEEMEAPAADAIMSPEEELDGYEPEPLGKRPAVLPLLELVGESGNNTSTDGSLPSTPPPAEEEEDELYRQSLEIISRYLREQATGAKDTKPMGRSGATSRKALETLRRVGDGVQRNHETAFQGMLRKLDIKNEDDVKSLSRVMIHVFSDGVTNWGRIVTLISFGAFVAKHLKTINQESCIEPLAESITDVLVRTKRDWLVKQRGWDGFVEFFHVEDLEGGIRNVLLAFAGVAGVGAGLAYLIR
Sequence of DNA dC->dU-editing enzyme APOBEC-3A (P31941 whole entry): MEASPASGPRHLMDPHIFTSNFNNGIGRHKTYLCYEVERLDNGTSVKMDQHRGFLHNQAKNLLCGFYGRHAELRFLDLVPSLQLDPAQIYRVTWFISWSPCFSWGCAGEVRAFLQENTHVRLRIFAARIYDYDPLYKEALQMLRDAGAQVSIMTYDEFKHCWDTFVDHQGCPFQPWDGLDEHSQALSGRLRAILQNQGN
Sequence of Paired box protein Pax-8 (Q06710 whole entry): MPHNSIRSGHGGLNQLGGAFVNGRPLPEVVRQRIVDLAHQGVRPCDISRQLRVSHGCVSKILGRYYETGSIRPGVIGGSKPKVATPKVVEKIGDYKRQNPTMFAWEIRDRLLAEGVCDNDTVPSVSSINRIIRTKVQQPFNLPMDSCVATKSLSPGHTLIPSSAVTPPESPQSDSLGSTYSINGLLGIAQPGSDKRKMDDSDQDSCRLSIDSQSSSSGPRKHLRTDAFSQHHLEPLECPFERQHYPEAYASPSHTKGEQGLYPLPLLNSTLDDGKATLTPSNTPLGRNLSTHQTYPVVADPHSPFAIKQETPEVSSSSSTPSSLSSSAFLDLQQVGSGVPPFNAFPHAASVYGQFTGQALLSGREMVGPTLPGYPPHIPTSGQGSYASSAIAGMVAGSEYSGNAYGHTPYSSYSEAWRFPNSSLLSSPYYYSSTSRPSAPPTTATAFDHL
Sequence of Beta-galactosidase (Q8VNN2 whole entry): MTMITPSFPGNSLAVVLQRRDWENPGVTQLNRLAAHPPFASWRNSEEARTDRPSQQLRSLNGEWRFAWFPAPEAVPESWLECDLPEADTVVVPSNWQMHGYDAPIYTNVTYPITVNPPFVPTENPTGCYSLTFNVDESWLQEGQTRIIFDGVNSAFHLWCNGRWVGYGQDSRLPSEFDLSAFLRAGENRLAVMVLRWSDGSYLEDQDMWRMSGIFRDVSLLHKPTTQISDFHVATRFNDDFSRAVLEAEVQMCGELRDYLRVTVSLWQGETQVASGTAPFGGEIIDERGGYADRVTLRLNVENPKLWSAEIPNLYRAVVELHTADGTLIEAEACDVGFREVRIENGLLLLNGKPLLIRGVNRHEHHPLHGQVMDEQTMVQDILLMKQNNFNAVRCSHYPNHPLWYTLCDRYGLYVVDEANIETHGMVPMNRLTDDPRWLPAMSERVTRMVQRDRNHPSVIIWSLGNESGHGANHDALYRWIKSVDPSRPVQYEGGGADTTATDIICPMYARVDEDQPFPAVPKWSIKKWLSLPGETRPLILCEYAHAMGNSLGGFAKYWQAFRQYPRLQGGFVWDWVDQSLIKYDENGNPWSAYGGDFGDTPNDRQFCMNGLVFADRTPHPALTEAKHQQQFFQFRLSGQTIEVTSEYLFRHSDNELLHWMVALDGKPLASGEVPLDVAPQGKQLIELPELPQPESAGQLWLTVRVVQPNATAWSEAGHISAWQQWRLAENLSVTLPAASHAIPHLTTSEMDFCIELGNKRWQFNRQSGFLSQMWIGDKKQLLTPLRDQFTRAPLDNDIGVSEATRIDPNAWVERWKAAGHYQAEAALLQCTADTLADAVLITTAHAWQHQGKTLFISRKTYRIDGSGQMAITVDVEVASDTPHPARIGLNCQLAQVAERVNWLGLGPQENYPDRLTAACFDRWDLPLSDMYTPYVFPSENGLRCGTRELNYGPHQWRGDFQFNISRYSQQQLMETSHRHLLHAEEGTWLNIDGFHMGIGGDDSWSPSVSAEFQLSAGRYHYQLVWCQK
Sequence of Glyceraldehyde-3-phosphate dehydrogenase (P04406 whole entry): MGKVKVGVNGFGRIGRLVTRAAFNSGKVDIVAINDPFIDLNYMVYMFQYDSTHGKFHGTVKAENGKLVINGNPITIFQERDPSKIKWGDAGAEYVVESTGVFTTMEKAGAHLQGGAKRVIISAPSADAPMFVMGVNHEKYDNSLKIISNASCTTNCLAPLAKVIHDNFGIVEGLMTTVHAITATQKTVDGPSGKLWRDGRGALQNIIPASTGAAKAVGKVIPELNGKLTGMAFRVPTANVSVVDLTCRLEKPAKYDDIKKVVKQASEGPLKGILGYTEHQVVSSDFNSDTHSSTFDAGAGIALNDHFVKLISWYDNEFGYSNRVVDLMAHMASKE
Sequence of DNA dC->dU-editing enzyme APOBEC-3G (Q9HC16 whole entry): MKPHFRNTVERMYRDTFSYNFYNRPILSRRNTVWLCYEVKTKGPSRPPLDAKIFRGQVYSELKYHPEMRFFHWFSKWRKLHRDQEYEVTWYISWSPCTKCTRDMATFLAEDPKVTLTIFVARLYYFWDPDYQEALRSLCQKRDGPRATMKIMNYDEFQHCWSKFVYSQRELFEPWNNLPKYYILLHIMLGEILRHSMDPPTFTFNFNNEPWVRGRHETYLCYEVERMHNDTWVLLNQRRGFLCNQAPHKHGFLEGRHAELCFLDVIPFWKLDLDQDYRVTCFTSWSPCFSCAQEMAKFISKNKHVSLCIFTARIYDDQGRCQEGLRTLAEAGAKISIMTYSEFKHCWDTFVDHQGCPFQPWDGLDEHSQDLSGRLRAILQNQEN

SMILES: Cc1cc2ncn(/N=C/c3ccc([N+](=O)[O-])s3)c2cc1C
- CC50 (Vero [1]; Chlorocebus sabaeus, Vero): 18.5 µM (active)
- EC50 [2]: 3.36 µM (active)
- EC50 [3]: 3.33 µM (active)
- IC50 [4]: 3.27 µM (active)
- CC50 [5]: 6.75 µM (active)
- CC50 [6]: 14 µM (active)
- CC50 [7]: 17.1 µM (active)
- IC50 (cells): 1.25 µM (active)

SMILES: O=C(CCC(=O)OCC(=O)c1cccc([N+](=O)[O-])c1)Nc1ccccc1Cl
- EC50 (Beta-galactosidase): > 40 µM (inactive)
- IC50 [8]: 15 µM (active)

SMILES: C[N+]1(CC(O)COc2ccccc2)CCN(C(=O)c2ccc([N+](=O)[O-])cc2)CC1 (stereo unspecified)
- IC50 [9]: 2.82 µM (active)
- IC50 [10]: 3.44 µM (active)

SMILES: CCN(CC)S(=O)(=O)c1ccc(NC(=O)COC(=O)c2ccc(Br)o2)cc1
- AC50 (Cytochrome P450 1A2): 0.316 µM (inconclusive)
- AC50 (Cytochrome P450 3A4): inconclusive

SMILES: COC(=O)N1CCC2(CC1)CN(c1ccccc1)C2
- AC50 (Cytochrome P450 3A4): inconclusive

SMILES: C[C@H]1O[C@@H](O[C@H]2[C@@H](O)C[C@H](O[C@H]3[C@@H](O)C[C@H](O[C@H]4CC[C@@]5(C)[C@H](CC[C@@H]6[C@@H]5C[C@@H](O)[C@]5(C)[C@@H](C7=CC(=O)OC7)CC[C@]65O)C4)O[C@@H]3C)O[C@@H]2C)C[C@H](O)[C@@H]1O [DIGOXIN]
- EC50 [11]: < 0.1 µM (active)
- EC50 [12]: < 0.1 µM (active)
- CC50 (Vero [1]): 0.37 µM (active)
- CC50 (Vero [1]; Chlorocebus sabaeus, Vero): 0.3 µM (active)
- EC50 [13]: < 0.1 µM (active)
- IC50 (Vero [14]): < 0.05 µM (active)
- EC50 (BJ): < 0.104 µM (active)
- CC50 (Vero [15]): 0.39 µM (active)
- AC50 (Paired box protein Pax-8): 0.414 µM (active)

SMILES: O=S(=O)(Nc1cnc2ccccc2c1)c1cc(Cl)ccc1Cl
- IC50 [16]: > 100 µM (not active)
- IC50 [17]: 49.6 µM (active)
